For series [1], the system named is HepG2 2.2.15. In words: Antiproliferative activity against human HepG2.2.15 cells assessed as cell growth inhibition. The format is functional, cell-based.
Series [2] relates to Hepatitis B virus. Description: Antiviral activity against Hepatitis B virus infected in human HepG2.2.15 cells assessed as inhibition of HBsAg level by MTT assay. The class given is functional, organism-based. The settings on record: HepG2 2.2.15. In general terms: Formazan colour is commonly taken as a measure of viable cells.
Series [3] concerns Hepatitis B virus. In words: Antiviral activity against Hepatitis B virus infected in human HepG2.2.15 cells assessed as inhibition of HBeAg level by MTT assay. Conditions: HepG2 2.2.15. The class given is functional, organism-based.
In series [4] the test system is Hepatitis B virus. Description: Antiviral activity against Hepatitis B virus infected in human HepG2.2.15 cells assessed as inhibition of viral DNA replication by MTT assay. The format is functional, organism-based. The settings on record: HepG2 2.2.15.
Series [5] deals with Stromelysin-1 (Homo sapiens) (UniProt P08254). Description: Inhibition of MMP-3 (unknown origin) at 5 uM.
Sequence of Stromelysin-1 (Homo sapiens) (P08254 100-477 limits assumed): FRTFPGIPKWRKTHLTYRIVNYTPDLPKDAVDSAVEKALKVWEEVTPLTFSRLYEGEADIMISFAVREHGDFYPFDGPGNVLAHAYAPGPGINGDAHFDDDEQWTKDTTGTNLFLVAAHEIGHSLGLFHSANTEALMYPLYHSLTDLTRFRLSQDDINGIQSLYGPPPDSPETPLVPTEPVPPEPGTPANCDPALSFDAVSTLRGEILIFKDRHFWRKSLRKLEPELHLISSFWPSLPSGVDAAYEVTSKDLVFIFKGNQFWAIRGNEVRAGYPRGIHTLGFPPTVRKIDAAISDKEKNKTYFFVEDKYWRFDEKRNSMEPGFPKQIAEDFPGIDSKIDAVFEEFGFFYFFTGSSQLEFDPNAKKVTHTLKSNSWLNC
Series [6] relates to Ishikawa. Description: Induction of autophagy in human Ishikawa cells assessed as ratio of LC3bII/LC3bI levels. The class given is functional.
In series [7] the target is Stromelysin-1 (Homo sapiens) (UniProt P08254). In words: Inhibition of MMP-3 (unknown origin) at 10 uM.
In series [8] the test system is HCT-116. In words: Antiproliferative activity against human HCT-116 cells assessed as cell growth inhibition by crystal violet staining based assay relative to control. The class given is functional. Set-up: scale not given: the % may be the effect or the level left.
In series [9] the test system is LNCaP. Description: Antiproliferative activity against human LNCAP cells assessed as cell growth inhibition in presence of calcitriol. The class given is functional, cell-based.
Series [10] in a line: Antiproliferative activity against human U-87 MG cells assessed as inhibition of cell proliferation. The format is functional, cell-based, U-87MG ATCC.
The subject of series [11] is RS4-11. In words: Antiproliferative activity against human RS4-11 cells assessed as cell growth inhibition. The format is functional, cell-based.
The subject of series [12] is LNCaP C4-2. In words: Antiproliferative activity against human LNCaP C4-2 cells assessed as cell growth inhibition in presence of calcitriol. The class given is functional, cell-based.
Series [13] in a line: Antiproliferative activity against human Ectopic endometrial stromal cell assessed as cell growth inhibition. The format is functional, cell-based.
Series [14] deals with LNCaP C4-2. Description: Antiproliferative activity against human LNCaP C4-2 cells assessed as cell growth inhibition. The class given is functional, cell-based.
Series [15] has as its system RL95-2. In words: Induction of autophagy in human RL95-2 cells assessed as ratio of LC3bII/LC3bI levels. The class given is functional.
The nature of series [16]: Cytotoxicity against human PBMC assessed as cell growth inhibition. The format is toxicity, cell-based. The settings on record: PBMC (peripheral blood mononuclear cells).
In series [17] the target is Estrogen receptor (Homo sapiens, UniProt P03372). Description: Displacement of [3H]-17beta-estradiol to estrogen receptor (unknown origin).
Sequence of Estrogen receptor (P03372 whole entry): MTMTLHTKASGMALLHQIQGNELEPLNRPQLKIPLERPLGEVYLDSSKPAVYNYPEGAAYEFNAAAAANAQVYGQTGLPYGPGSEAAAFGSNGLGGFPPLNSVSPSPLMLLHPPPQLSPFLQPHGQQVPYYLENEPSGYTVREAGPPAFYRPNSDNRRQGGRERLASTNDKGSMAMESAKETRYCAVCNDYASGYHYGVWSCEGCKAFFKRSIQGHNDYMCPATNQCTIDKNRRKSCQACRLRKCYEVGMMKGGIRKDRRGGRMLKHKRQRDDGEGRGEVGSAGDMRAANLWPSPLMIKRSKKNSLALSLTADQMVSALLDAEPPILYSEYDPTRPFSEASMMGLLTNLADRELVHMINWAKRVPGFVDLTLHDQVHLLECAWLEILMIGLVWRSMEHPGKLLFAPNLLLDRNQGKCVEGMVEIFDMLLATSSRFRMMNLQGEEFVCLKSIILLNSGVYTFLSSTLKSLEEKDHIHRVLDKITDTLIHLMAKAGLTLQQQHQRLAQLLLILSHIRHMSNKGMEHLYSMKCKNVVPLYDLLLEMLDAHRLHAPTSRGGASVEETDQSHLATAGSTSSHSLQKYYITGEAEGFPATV
Series [18] deals with LNCaP. In words: Antiproliferative activity against human LNCAP cells assessed as cell growth inhibition. The format is functional, cell-based.
In series [19] the test system is SF-188. Description: Antiproliferative activity against human SF-188 cells assessed as inhibition of cell proliferation. The format is functional, cell-based.
Series [20] deals with HT-1080. In words: Antiproliferative activity against human HT-1080 cells assessed as inhibition of cell proliferation. The class given is functional, cell-based.
For series [21], the system named is REH. Description: Antiproliferative activity against human REH cells assessed as cell growth inhibition. The class given is functional, cell-based.
Series [22] concerns SW480. Description: Antiproliferative activity against human SW480 cells assessed as cell growth inhibition by crystal violet staining based assay. The class given is functional.
Series [23] concerns HCT-116. Description: Antiproliferative activity against human HCT-116 cells assessed as cell growth inhibition by crystal violet staining based assay. The class given is functional.
Series [24] has as its system HepG2. Description: Antiproliferative activity against human HepG2 cells assessed as cell growth inhibition. The format is functional, cell-based.
For series [25], the system named is HL-60. In words: Antiproliferative activity against human HL-60 cells assessed as cell growth inhibition. The format is functional, cell-based.
For series [26], the system named is A549. Description: Antiproliferative activity against human A549 cells assessed as cell growth inhibition. The format is functional, cell-based.

A word on the IC50: it is the concentration that gives 50% inhibition. Turning to `CC1(C)CCC[C@](C)(C2CC[C@]3(C)C2[C@H](O)CC2[C@@]4(C)CC[C@H](OC(=O)c5cccs5)C(C)(C)C4CC[C@]23C)O1` (stereo partly specified), the IC50 in [1] amounted to 7.27 µM; in [2], 30.8 µM; in series [3] it was 18.2 µM; in [4] it was 16.5 µM.

What is called inhibition is the percentage by which the read-out fell short of the control. Turning to `CC(C)=CCC[C@](C)(O)C1CC[C@]2(C)C1[C@H](O)CC1[C@@]3(C)CC[C@H](O)C(C)(C)C3CC[C@]12C` (stereo partly specified), the inhibition in series [5] came out at 40.3%; in series [7] it was 68.6%. Also, the results for the Ratio in series [6] and in series [15] were 0.91 and 1.93, respectively. Besides, the Activity in series [8] was <30%. Moreover, the concentration for half-maximal inhibition (IC50) in series [9] turned out to be 53 µM; in [10], 38 µM; in [11] it was 27.2 µM; in series [12], 23 µM; in series [13], 30.6 µM; in series [14], 13 µM. The IC50 was 116 µM in series [16]; 26.3 µM in [17]; 41 µM in series [18]; 24 µM in series [19]; 76.8 µM in series [20]; 24.4 µM in series [21]. Further, the IC50 in [22] was found to be 8.99 µM; in series [23] it was 4.69 µM.

With `CCCCCCC/C=C\CCCCCCCC(=O)O[C@H]1CC[C@@]2(C)C(CC[C@]3(C)C2C[C@@H](O)C2C([C@@](C)(O)CCC=C(C)C)CC[C@]23C)C1(C)C` (stereo partly specified), the IC50 worked out at 9.2 µM in series [24], 11.6 µM in [25] and 29.7 µM in [26].
